We go through 21 compounds from patent US9353104B2, “Substituted pyridizinone derivatives as PDE10 inhibitors” (priority 2013, dated 2016).

The target in this assay is human PDE10A2 (Homo sapiens (Human), UniProt Q9Y233). The assay is described as follows: PDE10 fluorescence polarization (IMAP FP) inhibition assay. The settings on record: human PDE10A2 lysate, FAM-labeled cAMP 50 nM, room temperature; read-out: PDE10A Ki. The class given is biochemical. An outline of the steps: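 Cytoplasmic lysate of AD293 cells transiently expressing human PDE10A2, diluted for ~20% conversion of 50 nM FAM-cAMP, in 10 mM Tris pH 7.2, 10 mM MgCl2, 1 mM DTT, 0.01% Tween-20. Reaction 30 min at room temperature, read by IMAP fluorescence polarization; 10-point 3-fold titrations, 1% DMSO as 0%, reference PDE10 inhibitor at 5,000× Ki as 100%.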
Chain of human PDE10A2 (Q9Y233 267-1055): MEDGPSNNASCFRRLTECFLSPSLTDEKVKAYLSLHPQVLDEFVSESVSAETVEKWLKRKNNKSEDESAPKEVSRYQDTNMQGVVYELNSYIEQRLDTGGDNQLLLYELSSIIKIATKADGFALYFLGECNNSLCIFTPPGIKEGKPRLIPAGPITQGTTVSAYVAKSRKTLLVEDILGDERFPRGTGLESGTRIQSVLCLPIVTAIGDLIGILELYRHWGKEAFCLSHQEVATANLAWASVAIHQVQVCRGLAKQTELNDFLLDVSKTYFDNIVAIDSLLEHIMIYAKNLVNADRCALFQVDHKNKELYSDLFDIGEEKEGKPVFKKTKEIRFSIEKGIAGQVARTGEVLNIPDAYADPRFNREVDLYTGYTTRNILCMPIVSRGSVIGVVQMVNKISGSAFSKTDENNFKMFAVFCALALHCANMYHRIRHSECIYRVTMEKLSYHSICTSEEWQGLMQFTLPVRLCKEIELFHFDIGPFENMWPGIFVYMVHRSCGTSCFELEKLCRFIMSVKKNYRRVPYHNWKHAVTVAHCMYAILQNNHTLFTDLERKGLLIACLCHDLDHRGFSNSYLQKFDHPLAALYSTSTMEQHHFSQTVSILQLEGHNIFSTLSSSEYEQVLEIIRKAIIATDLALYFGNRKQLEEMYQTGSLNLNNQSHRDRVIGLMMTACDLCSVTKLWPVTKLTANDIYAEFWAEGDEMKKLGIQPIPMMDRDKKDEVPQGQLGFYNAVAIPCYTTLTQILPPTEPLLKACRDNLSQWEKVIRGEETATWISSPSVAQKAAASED
Usually Ki stands for a dissociation constant, usually derived from enzyme kinetics or from competition with a known ligand. For the compound `Cc1ccc(CNc2cc(OC[C@H]3C[C@@H]3c3ccc(OC(F)F)cn3)nn(C)c2=O)c(C)n1` [Example 58, 6-(((1S,2S)-2-(5-(difluoromethoxy)pyridin-2-yl)cyclopropyl)-methoxy)-4-(((2,6-di-methylpyridin-3-yl)-methyl)amino)-2-methyl-pyridazin-3(2H)-one], the Ki worked out at 0.028 nM.
For `COc1ccc([C@H]2C[C@@H]2COc2cc(NCc3c(C)noc3C)c(=O)n(C)n2)nc1` [Example 59, 4-(((3,5-dimethylisoxazol-4-yl)methyl)amino)-6-(((1S,2S)-2-(5-methoxy-pyridin-2-yl)cyclopropyl-)-methoxy)-2-methyl-pyridazin-3(2H)-one] the value was 0.38 nM; for `Cc1noc(C)c1CNc1cc(OC[C@H]2C[C@@H]2c2ccn(C)n2)nn(C)c1=O` [Example 61, 4-(((3,5-dimethylisoxazol-4-yl)methyl)amino)-2-methyl-6-(((1S,2S)-2-(1-methyl-1H-pyrazol-3-yl)cyclopropyl)methoxy)-pyridazin-3(2H)-one], 4.1 nM.
On to `COc1ccc([C@H]2C[C@@H]2COc2cc(NCc3ccnc(C)c3)c(=O)n(C)n2)nc1` [Example 62, 6-(((1S,2S)-2-(5-methoxy-pyridin-2-yl)cyclopropyl-)-methoxy)-2-methyl-4-(((2-methylpyridin-4-yl)methyl)amino)pyridazin-3(2H)-one], for which the Ki was found to be 0.122 nM.
Consider `COc1ccc([C@H]2C[C@@H]2COc2cc(NCc3cncnc3)c(=O)n(C)n2)nc1` [Example 63, 6-(((1S,2S)-2-(5-methoxy-pyridin-2-yl)cyclopropyl-)-methoxy)-2-methyl-4-((pyrimidin-5-ylmethyl)-amino)pyridazin-3(2H)one], for which the Ki came to 1.7 nM.
For the compound `COc1ccc([C@H]2C[C@@H]2COc2cc(NCc3ccc(C)nc3)c(=O)n(C)n2)nc1` [Example 64, 6-(((1S,2S)-2-(5-methoxy-pyridin-2-yl)cyclopropyl-)-methoxy)-2-methyl-4-(((6-methylpyridin-3-yl)methyl)amino)pyridazin-3(2H)-one], the Ki stood at 0.025 nM.
The result for `COc1ccc([C@H]2C[C@@H]2COc2cc(NCc3cccnc3C)c(=O)n(C)n2)nc1` [Example 65, 6-(((1S,2S)-2-(5-methoxy-pyridin-2-yl)cyclopropyl-)-methoxy)-2-methyl-4-(((2-methylpyridin-3-yl)-methyl)amino)pyridazin-3(2H)-one] reads 0.053 nM; that for `COc1ccc([C@H]2C[C@@H]2COc2cc(NCc3cnccn3)c(=O)n(C)n2)nc1` [Example 66, 6-(((1S,2S)-2-(5-methoxypyridin-2-yl)cyclopropyl)methoxy)-2-methyl-4-((pyrazin-2-ylmethyl)amino)pyridazin-3(2H)-one], 5.7 nM.
Turning to `COc1ccc([C@H]2C[C@@H]2COc2cc(NCc3cncc(C)c3)c(=O)n(C)n2)nc1` [Example 67, 6-(((1S,2S)-2-(5-methoxypyridin-2-yl)cyclopropyl)methoxy)-2-methyl-4-(((5-methylpyridin-3-yl)methyl)amino)pyridazin-3(2H)-one], the Ki came to 0.049 nM.
Take `COc1ccc([C@H]2C[C@@H]2COc2cc(NCc3cccnc3)c(=O)n(C)n2)nc1` [Example 68, 6-(((1S,25)-2-(5-methoxy-pyridin-2-yl)cyclopropyl-)-methoxy)-2-methyl-4-((pyridin-3-ylmethyl)-amino)pyridazin-3(2H)one]: the inhibitory constant (Ki) came to 11.6 nM.
As to `COc1ccc([C@H]2C[C@@H]2COc2cc(NCc3ccc(C)c(C)n3)c(=O)n(C)n2)nc1` [Example 69, 4-(((5,6-dimethylpyridin-2-yl)methyl)amino)-6-(((1S,2S)-2-(5-methoxy-pyridin-2-yl)cyclopropyl-)-methoxy)-2-methyl-pyridazin-3(2H)-one], the Ki was found to be 0.41 nM.
As to `COc1ccc([C@H]2C[C@@H]2COc2cc(NCc3nc(C)ccc3F)c(=O)n(C)n2)nc1` [Example 70, 4-(((3-fluoro-6-methyl-pyridin-2-yl)methyl)-amino)-6-(((1S,2S)-2-(5-methoxypyridin-2-yl)-cyclopropyl)methoxy)-2-methylpyridazin-3(2H)one], the inhibitory constant (Ki) worked out at 55.1 nM.
As for `COc1ccc([C@H]2C[C@@H]2COc2cc(NCc3nc(C)ccc3C)c(=O)n(C)n2)nc1` [Example 71, 4-(((3,6-dimethylpyridin-2-yl)methyl)amino)-6-(((1S,2S)-2-(5-methoxy-pyridin-2-yl)cyclopropyl-)-methoxy)-2-methylpyridazin-3(2H)one], the Ki was 48.5 nM.
Turning to `COc1ccc([C@H]2C[C@@H]2COc2cc(NCc3ccc(C)cn3)c(=O)n(C)n2)nc1` [Example 72, 6-(((1S,2S)-2-(5-methoxy-pyridin-2-yl)cyclopropyl-)-methoxy)-2-methyl-4-(((5-methylpyridin-2-yl)-methyl)amino)pyridazin-3(2H)-one], the Ki was 0.019 nM.
In the case of `COc1ccc([C@H]2C[C@@H]2COc2cc(NCc3ncccc3C)c(=O)n(C)n2)nc1` [Example 73, 6-(((1S,2S)-2-(5-methoxypyridin-2-yl)cyclopropyl)methoxy)-2-methyl-4-(((3-methyl-pyridin-2-yl)methyl)-amino)pyridazin-3(2H)one], the Ki was 32.3 nM.
Turning to `COc1ccc([C@H]2C[C@@H]2COc2cc(NCc3ccc(F)c(C)n3)c(=O)n(C)n2)nc1` [Example 74, 4-(((5-fluoro-6-methyl-pyridin2yl)methyl)amino)-6-(((1S,2S)-2-(5-methoxy-pyridin-2-yl)cyclopropyl-)-methoxy)-2-methyl-pyridazin-3(2H)-one], the Ki is 5.3 nM.
Regarding `COc1ccc([C@H]2C[C@@H]2COc2cc(NCc3ccc(Cl)c(C)n3)c(=O)n(C)n2)nc1` [Example 75, 4-(((5-chloro-6-methyl-pyridin-2-yl)methyl)-amino)-6-(((1S,2S)-2-(5-methoxypyridin-2-yl)cyclopropyl)methoxy)2-methylpyridazin-3(2H)one], the Ki amounted to 1.3 nM.
As for `COc1ccc([C@H]2C[C@@H]2COc2cc(NCc3ccc(C)nn3)c(=O)n(C)n2)nc1` [Example 76, 6-(((1S,2S)-2-(5-methoxy-pyridin-2-yl)cyclopropyl-)-methoxy)-2-methyl-4-(((6-methylpyridazin-3-yl)methyl)amino)pyridazin-3(2H)-one], the Ki worked out at 0.039 nM.
For `COc1ccc(Cn2cc(CNc3cc(OC[C@H]4C[C@@H]4c4ccc(OC)cn4)nn(C)c3=O)c(C)n2)cc1` [Example 77, 4-((1-(4-methoxybenzyl)-3-methyl-1H-pyrazol-4-yl)methylamino)-6-(((1S,2S)-2-(5-methoxy-pyridin-2-yl)cyclopropyl)-methoxy)-2-methyl-pyridazin-3(2H)-one], the inhibitory constant (Ki) was 5.7 nM.
For `Cc1ccc([C@H]2C[C@@H]2COc2cc(NCc3cnn4ccccc34)c(=O)n(C)n2)nc1` [Example 79, 2-methyl-6-(((1S,2S)-2-(5-methylpyridin-2-yl)cyclopropyl)methoxy)-4-((pyrazolo[1,5-a]pyridin-3-ylmethyl)amino)-pyridazin-3(2H)-one], the inhibition constant (Ki) worked out at 1.1 nM.
With `CN(C)c1c(CNc2cc(OC[C@H]3C[C@@H]3c3ccn(C)n3)nn(C)c2=O)cnn1C` [Example 82, 4-(((5-(dimethylamino)-1-methyl-1H-pyrazol-4-yl)methyl)amino)-2-methyl-6-(((1S,2S)-2-(1-methyl-1H-pyrazol-3-yl)cyclopropyl)methoxy)-pyridazin-3(2H)-one], the Ki is 75 nM.
